In US20210353668A1, “CALCIUM COMPOSITION” (PerformaNat GmbH, priority 2018, published 2021):

Test system: Ruminal epithelium of sheep
Assay: Measurement of Ca-flux (45Ca2+ net flux) across ruminal epithelium in the Ussing chamber
Type: cell-based
Description: Measurement of Ca-Flux Across Ruminal Epithelium in the Ussing-Chamber
Ruminal epithelium of sheep was mounted in a conventional Ussing chamber. Chambers contained 16 ml of serosal or mucosal buffer, which was circulated and gassed by a gas lift system (5% CO2/95% O2).
In this experiment 24 chambers were divided into three groups. Group 1 (mucosal buffer containing 1.8 mM CaCl2), group 2 (mucosal buffer containing 3.6 mM CaCl2) and group 3 (containing 7.2 mM CaCl2). The same buffer was present on the serosal side of all chambers (Table 1). Each group (1,2,3) was again divided into two parts. One was defined as control group one as EO group. It is noted that the amounts correspond to a normal Ca^2+ concentration in the rumen (1.8 mM) (referred to as Comparative Example A) and to treated rumen corresponding to the administration of about 13 g Ca (3.6 mM) and 26 g Ca (7.2 mM) (referred to as Examples 1 and 2, respectively).
After an equilibrating time of around 30 minutes ^45Ca^2+ (40 kBq per 16 ml chamber) was added to either to the mucosal or serosal “hot” side.
Depending on the group 16 μl ethanol (Control) or 16 μl essential oil (EO) were added to the mucosal side of the chamber. The essential oil used is menthol, and the actual menthol concentration obtained is 50 μM.
After 70 minutes the first sample from the “cold” side was taken, followed by five samples of each 900 μl which were taken in an interval of 30 minutes. The sample volume was replaced by an aliquot of the respective buffer. Radioactivity was measured using a β-counter (LKB Wallace-Perkin-Elmer, Überlingen, Germany).
Epithelia were paired after sorting for transepithelial conductance (Gt) and the net calcium flux was calculated from the difference between mucosal to serosal flux and serosal to mucosal flux for paired epithelia.
The net transport of calcium across the isolated ruminal epithelium was calculated by subtracting the calcium secretion (serosal to mucosal transport) from the calcium absorption (mucosal to serosal transport) reflecting the real absorption of calcium from the rumen to the blood side. For statistical analysis linear mixed effect models for repeated measures were calculated using mucosal calcium concentration and the addition of essential oils as fixed effects and animal as random effect (SAS System, method MIXED PROC). The effects of calcium concentration and the addition of essential oils was calculated as well as their interaction. Furthermore, the effect of sampling time was included to the model. Effects were evaluated for the repeated measures of the consecutive flux periods.

## CC1CCC(C(C)C)C(O)C1 (stereo not shown) [menthol]
All three Ca concentrations (1.8, 3.6, 7.2 mM), menthol present
  calcium flux compared to the control (in words): increased
Mucosal Ca 1.8 mM
  increase of calcium absorption by addition of EO: 6.06 nmol/cm^2/h
Mucosal Ca 3.6 mM
  increase of calcium absorption by addition of EO: 2.52 nmol/cm^2/h
Mucosal Ca 7.2 mM
  increase of calcium absorption by addition of EO: 8.22 nmol/cm^2/h
